Assay results reported in patent US8815909B2, “Diaminocyclohexane compounds and uses thereof” (Bristol-Myers Squibb Company, priority 2011, dated 2014).
Where a name gives a salt, the structure may show the parent alone.

Biological target: T1, human Y4 receptor (Homo sapiens, UniProt P50391)
T1 construct: expressed in transfected cells
Assay: NPY4 cAMP HTRF Agonist Assay (inhibitory cAMP assay, Gi activation by Y4 agonism)
Assay type: cell-based
Conditions: human Y4 stable CHO clonal cells, forskolin + IBMX; read-out: NPY4 cAMP HTRF Agonist Assay EC50
Procedure: NPY4 cAMP HTRF Agonist Assay
The functionality of the compound at Y4 receptor was analyzed using a inhibitory cAMP assay (CISBIO, HTRF cAMP kit #62AM4PEC) to measure the Gi activation by Y4 agonism.
The human Y4 stable CHO clonal cells were maintained in culture medium (F-12 containing 10% Fetal Bovine Serum, […] GENETICIN®, […] Zeocin). Before the experiment, 5 μL of 1 uM Forskolin (Sigma, # F6886) and 100 uM IBMX (Sigma, # I5879) in PBS buffer were added into 384-well plates (PE, Proxi-plate) that were pre-dotted with 100 nL compounds. The cells were removed from the flasks by Cellstripper, counted and adjusted to 1.0×10^6 cells/mL in PBS buffer, and added 5 μL/well (5000 cells/well) into the above 384-well plates. The cells were then covered and incubated for 30 minutes at room temperature. After incubation, 5 μL/well of D2-conjugate in HTRF lysis buffer was first added, followed by adding 5 μL/well of anti-cAMP Cryptate in HTRF lysis buffer. The plates were incubated for another 1 hour at room temperature and read on the EnVision Multilabel Plate Reader.
Compounds described herein were tested in the above assay.

T1 sequence (P50391 whole entry): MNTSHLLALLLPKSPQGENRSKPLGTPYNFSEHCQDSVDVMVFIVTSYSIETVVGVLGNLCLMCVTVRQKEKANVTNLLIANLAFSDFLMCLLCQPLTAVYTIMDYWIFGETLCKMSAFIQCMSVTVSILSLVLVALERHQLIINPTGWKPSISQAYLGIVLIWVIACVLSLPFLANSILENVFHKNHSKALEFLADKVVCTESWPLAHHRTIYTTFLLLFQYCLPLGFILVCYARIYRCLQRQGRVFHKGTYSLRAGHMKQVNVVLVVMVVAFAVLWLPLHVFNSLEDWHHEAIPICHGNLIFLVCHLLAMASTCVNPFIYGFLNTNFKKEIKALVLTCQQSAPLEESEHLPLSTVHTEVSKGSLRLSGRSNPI

Row | Compound | EC50
1 | N#Cc1ccc(N2CCC[C@H](N[C@@H]3CCCC[C@H]3Nc3noc(-c4ccccc4)n3)C2)cc1 [Example 41] | 2510 nM
2 | N#Cc1ccc(N2CCC[C@H](N[C@@H]3CCCC[C@H]3Nc3ncc(-c4ccccc4)s3)C2)cc1 [Example 42, 4-((S)-3-((1R,2R)-2-(5-Phenylthiazol-2-ylamino)cyclohexylamino)piperidin-1-yl)benzonitrile] | 45 nM
3 | N#Cc1ccc(N2CCC[C@H](N[C@@H]3CCCC[C@H]3Nc3cc(-c4ccc(OC(F)F)cc4)ccn3)C2)cc1 [Example 43, 4-((S)-3-((1R,2R)-2-(4-(4-(Difluoromethoxy)phenyl)pyridin-2-ylamino)cyclohexylamino)piperidin-1-yl)benzonitrile tris-trifluoroacetate] | 18 nM
4 | N#Cc1ccc(N2CCC[C@H](N[C@@H]3CCCC[C@H]3Nc3cc(-c4ccc(F)cc4)ccn3)C2)cc1 [Example 44, 4-((S)-3-((1R,2R)-2-(4-(4-Fluorophenyl)pyridin-2-ylamino)cyclohexylamino)piperidin-1-yl)benzonitrile tris-trifluoroacetate] | 50 nM
5 | N#Cc1ccc(N2CCC[C@H](N[C@@H]3CCCC[C@H]3Nc3cc(-c4ccc(O)cc4)ccn3)C2)cc1 [Example 45, 4-((S)-3-((1R,2R)-2-(4-(4-Hydroxyphenyl)pyridin-2-ylamino)cyclohexylamino)piperidin-1-yl)benzonitrile tris-trifluoroacetate] | 19 nM
6 | N#Cc1ccc(N2CCC[C@H](N[C@@H]3CCCC[C@H]3Nc3cc(-c4ccc(Cl)cc4)ccn3)C2)cc1 [Example 46, 4-((S)-3-((1R,2R)-2-(4-(4-Chlorophenyl)pyridin-2-ylamino)cyclohexylamino)piperidin-1-yl)benzonitrile tris-trifluoroacetate] | 208 nM
7 | N#Cc1ccc(N2CCC[C@H](N[C@@H]3CCCC[C@H]3Nc3nccc(-c4ccccc4)n3)C2)cc1F [Example 47, 2-Fluoro-4-((S)-3-((1R,2R)-2-(4-phenylpyrimidin-2-ylamino)cyclohexylamino)piperidin-1-yl)benzonitrile bis-trifluoroacetate] | 34 nM
8 | N#Cc1ccc(N2CCC[C@H](N[C@@H]3CCCC[C@H]3Nc3ncc(-c4ccccc4)o3)C2)cc1F [Example 48, 2-Fluoro-4-((S)-3-((1R,2R)-2-(5-phenyloxazol-2-ylamino)cyclohexylamino)piperidin-1-yl)benzonitrile bis-trifluoroacetate] | 6 nM
9 | N#Cc1ccc(N2CCC[C@H](N[C@@H]3CCCC[C@H]3Nc3ncc(-c4ccc(OC(F)(F)F)cc4)o3)C2)cc1F [Example 49, 2-Fluoro-4-((S)-3-((1R,2R)-2-(5-(4-(trifluoromethoxy)phenyl)oxazol-2-ylamino)cyclohexylamino)piperidin-1-yl)benzonitrile bis-trifluoroacetate] | 2 nM
10 | N#Cc1ccc(N2CCC[C@H](N[C@@H]3CCCC[C@H]3Nc3cc(Br)ccn3)C2)cc1 [Example 50, 4-((S)-3-((1R,2R)-2-(4-Bromopyridin-2-ylamino)cyclohexylamino)piperidin-1-yl)benzonitrile] | 231 nM
11 | N#Cc1ccc(N2CCC[C@H](N[C@@H]3CCCC[C@H]3Nc3ncc(-c4ccccc4)o3)C2)c(F)c1 [Example 51, 3-Fluoro-4-((S)-3-((1R,2R)-2-(5-phenyloxazol-2-ylamino)cyclohexylamino)piperidin-1-yl)benzonitrile] | 548 nM
12 | N#Cc1ccc(N2CCC[C@H](N[C@@H]3CCCC[C@H]3Nc3ncc(-c4ccc(OC(F)(F)F)cc4)o3)C2)c(F)c1 [Example 52, 3-Fluoro-4-((S)-3-((1R,2R)-2-(5-(4-(trifluoromethoxy)phenyl)oxazol-2-ylamino)cyclohexylamino)piperidin-1-yl)benzonitrile] | 193 nM
13 | N#Cc1ccc(N2CCC[C@H](N[C@@H]3CCCC[C@H]3Nc3cc(-c4ccccc4)ccn3)C2)cc1 [Example 53, 4-((S)-3-((1R,2R)-2-(4-Phenylpyridin-2-ylamino)cyclohexylamino)piperidin-1-yl)benzonitrile bis-trifluoroacetate] | 95 nM
14 | N#Cc1ccc(N2CCC[C@H](N[C@@H]3CCCC[C@H]3Nc3nnc(-c4ccccc4)o3)C2)cc1 [Example 54, 4-((S)-3-((1R,2R)-2-(5-Phenyl-1,3,4-oxadiazol-2-ylamino)cyclohexylamino)piperidin-1-yl)benzonitrile trifluoroacetate] | 272 nM
15 | N#Cc1ccc(N2CCC[C@H](N[C@@H]3CCCC[C@H]3Nc3nc4ccccc4o3)C2)cc1 [Example 55, 4-((S)-3-((1R,2R)-2-(Benzo[d]oxazol-2-ylamino)cyclohexylamino)piperidin-1-yl)benzonitrile] | 463 nM
16 | N#Cc1ccc(N2CCC[C@H](N[C@@H]3CCCC[C@H]3Nc3ncc(-c4ccc(OC(F)(F)F)cc4)o3)C2)cc1 [Example 56, 4-((S)-3-((1R,2R)-2-(5-(4-(Trifluoromethoxy)phenyl)oxazol-2-ylamino)cyclohexylamino)piperidin-1-yl)benzonitrile] | 23 nM
17 | N#Cc1ccc(N2CCC[C@H](N[C@@H]3CCCC[C@H]3Nc3ncc(-c4ccccc4)o3)C2)cc1 [Example 57, 4-((S)-3-((1R,2R)-2-(5-Phenyloxazol-2-ylamino)cyclohexylamino)piperidin-1-yl)benzonitrile] | 25 nM
18 | COc1ccc(-c2ccnc(N[C@@H]3CCCC[C@H]3N[C@H]3CCCN(c4ccc(C#N)cc4)C3)n2)cc1 [Example 58, 4-((S)-3-((1R,2R)-2-(4-(4-Methoxyphenyl)pyrimidin-2-ylamino)cyclohexylamino)piperidin-1-yl)benzonitrile trifluoroacetate] | 1170 nM
19 | N#Cc1ccc(N2CCC[C@H](N[C@@H]3CCCC[C@H]3Nc3nccc(-c4ccc(OC(F)(F)F)cc4)n3)C2)cc1 [Example 59, 4-((S)-3-((1R,2R)-2-(4-(4-(Trifluoromethoxy)phenyl)pyrimidin-2-ylamino)cyclohexylamino)piperidin-1-yl)benzonitrile bis-trifluoroacetate] | 297 nM
20 | N#Cc1ccc(N2CCC[C@H](N[C@@H]3CCCC[C@H]3Nc3nccc(-c4ccccc4)n3)C2)cc1 [Example 60, 4-((S)-3-((1R,2R)-2-(4-Phenylpyrimidin-2-ylamino)cyclohexylamino)piperidin-1-yl)benzonitrile bis-trifluoroacetate] | 500 nM
21 | N#Cc1ccc(N2CCC[C@H](N[C@@H]3CCCC[C@H]3Nc3nccc(-c4cccc(OC(F)(F)F)c4)n3)C2)cc1 [Example 61, 4-((S)-3-((1R,2R)-2-(4-(3-(Trifluoromethoxy)phenyl)pyrimidin-2-ylamino)cyclohexylamino)piperidin-1-yl)benzonitrile bis-trifluoroacetate] | 861 nM
22 | c1ccc(-c2cnc(N[C@@H]3CCCC[C@H]3N[C@H]3CCCN(c4ccc(-n5cccn5)cc4)C3)o2)cc1 [Example 62, (1R,2R)—N1-((S)-1-(4-(1H-Pyrazol-1-yl)phenyl)piperidin-3-yl)-N2-(5-phenyloxazol-2-yl)cyclohexane-1,2-diamine trifluoroacetate] | 61 nM
23 | FC(F)(F)Oc1ccc(-c2cnc(N[C@@H]3CCCC[C@H]3N[C@H]3CCCN(c4ccc(-n5cccn5)cc4)C3)o2)cc1 [Example 63, (1R,2R)—N1-((S)-1-(4-(1H-Pyrazol-1-yl)phenyl)piperidin-3-yl)-N2-(5-(4-(trifluoromethoxy)phenyl)oxazol-2-yl)cyclohexane-1,2-diamine trifluoroacetate] | 174 nM
24 | c1ccc(-c2ccnc(N[C@@H]3CCCC[C@H]3N[C@H]3CCCN(c4ccc(-n5cccn5)cc4)C3)n2)cc1 [Example 64, (1R,2R)—N1-((S)-1-(4-(1H-Pyrazol-1-yl)phenyl)piperidin-3-yl)-N2-(4-phenylpyrimidin-2-yl)cyclohexane-1,2-diamine bis-trifluoroacetate] | 89 nM
25 | Cc1cnn(-c2ccc(N3CCC[C@H](N[C@@H]4CCCC[C@H]4Nc4nccc(-c5ccccc5)n4)C3)cc2)c1 [Example 65, (1R,2R)—N1-((S)-1-(4-(4-Methyl-1H-pyrazol-1-yl)phenyl)piperidin-3-yl)-N2-(4-phenylpyrimidin-2-yl)cyclohexane-1,2-diamine bis-trifluoroacetate] | 62 nM
26 | Cc1cnn(-c2ccc(N3CCC[C@H](N[C@@H]4CCCC[C@H]4Nc4ncc(-c5ccc(OC(F)(F)F)cc5)o4)C3)cc2)c1 [Example 66, (1R,2R)—N1-((S)-1-(4-(4-Methyl-1H-pyrazol-1-yl)phenyl)piperidin-3-yl)-N2-(5-(4-(trifluoromethoxy)phenyl)oxazol-2-yl)cyclohexane-1,2-diamine bis-trifluoroacetate] | 1260 nM
27 | Cc1ccn(-c2ccc(N3CCC[C@H](N[C@@H]4CCCC[C@H]4Nc4nccc(-c5ccccc5)n4)C3)cc2)n1 [Example 67, (1R,2R)—N1-((S)-1-(4-(3-Methyl-1H-pyrazol-1-yl)phenyl)piperidin-3-yl)-N2-(4-phenylpyrimidin-2-yl)cyclohexane-1,2-diamine bis-trifluoroacetate] | 57 nM
28 | Cc1ccn(-c2ccc(N3CCC[C@H](N[C@@H]4CCCC[C@H]4Nc4ncc(-c5ccc(OC(F)(F)F)cc5)o4)C3)cc2)n1 [Example 68, (1R,2R)—N1-((S)-1-(4-(3-Methyl-1H-pyrazol-1-yl)phenyl)piperidin-3-yl)-N2-(5-(4-(trifluoromethoxy)phenyl)oxazol-2-yl)cyclohexane-1,2-diamine bis-trifluoroacetate] | 489 nM
